The supplement of paper PMC10307832

Key:
Assay in all cases: relative viability (nuclei count vs DMSO), 5 days (fraction); higher = more cells survive
[1] = compound: CC(C)(C)c1nc(-c2cccc(NS(=O)(=O)c3c(F)cccc3F)c2F)c(-c2ccnc(N)n2)s1 [Dabrafenib] + CC(C)C[C@H](NC(=O)[C@H](Cc1ccccc1)NC(=O)c1cnccn1)B(O)O [Bortezomib] (partner 0.002 µM)
Outline: (§1)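 A single step with final 0.05% Triton X-100, 1% formaldehyde and 1 ug/ml Hoechst fixed the cells and stained nuclei 5 days after treatment. Lung cancer cell lines in 1536-well plates had been treated by pin tool the day after seeding with one drug alone or a fixed anchor-drug dose plus five library-drug doses (not always all listed) in √10 steps, and nuclei were counted on 4× images. Relative viability is the ratio of nuclei in treated wells to nuclei in vehicle wells, taken as the median of duplicate plates.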

[2] = compound: NC(=O)c1ccc(N(C(N)=O)c2c(F)cccc2F)nc1-c1ccc(F)cc1F [VX-702] + Cc1nc(Nc2ncc(C(=O)Nc3c(C)cccc3Cl)s2)cc(N2CCN(CCO)CC2)n1 [Dasatinib] (partner 0.075 µM)
Outline: as §1

[3] = compound: CC(C)(C)c1nc(-c2cccc(NS(=O)(=O)c3c(F)cccc3F)c2F)c(-c2ccnc(N)n2)s1 [Dabrafenib] + C[C@]1(O)C[C@@H](c2nc(-c3ccc4ccc(-c5ccccc5)nc4c3)c3c(N)nccn32)C1 [Linsitinib] (partner 1 µM)
Outline: as §1

[4] = compound: NC(=O)c1ccc(N(C(N)=O)c2c(F)cccc2F)nc1-c1ccc(F)cc1F [VX-702] + CC(=O)c1c(C)c2cnc(Nc3ccc(N4CCNCC4)cn3)nc2n(C2CCCC2)c1=O [Palbociclib] (partner 0.5 µM)
Outline: as §1

## LC-2-ad
[1]; first compound 0.003 µM
  relative viability: 1.04
[1]; first compound 0.009487 µM
  relative viability: 1.03
[1]; first compound 0.03 µM
  relative viability: 0.969
[1]; first compound 0.09487 µM
  relative viability: 0.918
[1]; first compound 0.3 µM
  relative viability: 1.09
[2]; first compound 0.02 µM
  relative viability: 0.724
[2]; first compound 0.2 µM
  relative viability: 0.581
[2]; first compound 0.6325 µM
  relative viability: 0.619
[2]; first compound 2 µM
  relative viability: 0.901
[3]; first compound 0.003 µM
  relative viability: 0.93
[3]; first compound 0.009487 µM
  relative viability: 0.768
[3]; first compound 0.03 µM
  relative viability: 0.802
[3]; first compound 0.09487 µM
  relative viability: 0.764
[3]; first compound 0.3 µM
  relative viability: 0.851
[4]; first compound 0.02 µM
  relative viability: 0.496
[4]; first compound 0.2 µM
  relative viability: 0.451
[4]; first compound 0.6325 µM
  relative viability: 0.525
[4]; first compound 2 µM
  relative viability: 0.478

## LCLC-97TM1
[1]; first compound 0.009487 µM
  relative viability: 0.643
[1]; first compound 0.03 µM
  relative viability: 0.782
[1]; first compound 0.09487 µM
  relative viability: 0.162
[1]; first compound 0.3 µM
  relative viability: 0.469
[2]; first compound 0.02 µM
  relative viability: 0.971
[2]; first compound 0.2 µM
  relative viability: 0.803
[2]; first compound 0.6325 µM
  relative viability: 0.817
[2]; first compound 2 µM
  relative viability: 1.01
[3]; first compound 0.009487 µM
  relative viability: 0.18
[3]; first compound 0.03 µM
  relative viability: 0.187
[3]; first compound 0.3 µM
  relative viability: 0.192
[4]; first compound 0.02 µM
  relative viability: 0.192
[4]; first compound 0.2 µM
  relative viability: 0.23
[4]; first compound 0.6325 µM
  relative viability: 0.195
[4]; first compound 2 µM
  relative viability: 0.3

## LCLC-103H
[1]; first compound 0.003 µM
  relative viability: 1.06
[1]; first compound 0.009487 µM
  relative viability: 1.14
[1]; first compound 0.03 µM
  relative viability: 0.995
[1]; first compound 0.09487 µM
  relative viability: 1.09
[1]; first compound 0.3 µM
  relative viability: 1.01
[2]; first compound 0.02 µM
  relative viability: 0.487
[2]; first compound 0.2 µM
  relative viability: 0.403
[2]; first compound 0.6325 µM
  relative viability: 0.504
[2]; first compound 2 µM
  relative viability: 0.507
[3]; first compound 0.003 µM
  relative viability: 1.04
[3]; first compound 0.009487 µM
  relative viability: 1.08
[3]; first compound 0.03 µM
  relative viability: 0.84
[3]; first compound 0.09487 µM
  relative viability: 1.13
[3]; first compound 0.3 µM
  relative viability: 1.09
[4]; first compound 0.02 µM
  relative viability: 0.459
[4]; first compound 0.2 µM
  relative viability: 0.498
[4]; first compound 0.6325 µM
  relative viability: 0.439
[4]; first compound 2 µM
  relative viability: 0.434

## LOU-NH91
[1]; first compound 0.009487 µM
  relative viability: 0.457
[1]; first compound 0.03 µM
  relative viability: 0.524
[1]; first compound 0.09487 µM
  relative viability: 0.456
[1]; first compound 0.3 µM
  relative viability: 0.497
[2]; first compound 0.02 µM
  relative viability: 0.572
[2]; first compound 0.2 µM
  relative viability: 0.553
[2]; first compound 0.6325 µM
  relative viability: 0.576
[2]; first compound 2 µM
  relative viability: 0.364
[3]; first compound 0.009487 µM
  relative viability: 1.15
[3]; first compound 0.03 µM
  relative viability: 0.93
[3]; first compound 0.09487 µM
  relative viability: 0.91
[3]; first compound 0.3 µM
  relative viability: 0.944
[4]; first compound 0.02 µM
  relative viability: 0.554
[4]; first compound 0.2 µM
  relative viability: 0.532
[4]; first compound 0.6325 µM
  relative viability: 0.544
[4]; first compound 2 µM
  relative viability: 0.536

## LU99A
[1]; first compound 0.003 µM
  relative viability: 1.16
[1]; first compound 0.009487 µM
  relative viability: 0.99
[1]; first compound 0.03 µM
  relative viability: 1.15
[1]; first compound 0.09487 µM
  relative viability: 1.1
[1]; first compound 0.3 µM
  relative viability: 0.887
[2]; first compound 0.02 µM
  relative viability: 0.427
[2]; first compound 0.2 µM
  relative viability: 0.415
[2]; first compound 0.6325 µM
  relative viability: 0.522
[2]; first compound 2 µM
  relative viability: 0.402
[3]; first compound 0.003 µM
  relative viability: 0.542
[3]; first compound 0.009487 µM
  relative viability: 0.532
[3]; first compound 0.03 µM
  relative viability: 0.484
[3]; first compound 0.09487 µM
  relative viability: 0.476
[3]; first compound 0.3 µM
  relative viability: 0.476
[4]; first compound 0.02 µM
  relative viability: 0.407
[4]; first compound 0.2 µM
  relative viability: 0.387
[4]; first compound 0.6325 µM
  relative viability: 0.389
[4]; first compound 2 µM
  relative viability: 0.34

## LXF-289
[1]; first compound 0.003 µM
  relative viability: 0.949
[1]; first compound 0.009487 µM
  relative viability: 1.01
[1]; first compound 0.03 µM
  relative viability: 1.18
[1]; first compound 0.09487 µM
  relative viability: 0.969
[1]; first compound 0.3 µM
  relative viability: 1.13
[2]; first compound 0.02 µM
  relative viability: 0.234
[2]; first compound 0.2 µM
  relative viability: 0.199
[2]; first compound 0.6325 µM
  relative viability: 0.212
[2]; first compound 2 µM
  relative viability: 0.225
[3]; first compound 0.003 µM
  relative viability: 0.992
[3]; first compound 0.009487 µM
  relative viability: 0.976
[3]; first compound 0.03 µM
  relative viability: 1.04
[3]; first compound 0.09487 µM
  relative viability: 0.954
[3]; first compound 0.3 µM
  relative viability: 1.08
[4]; first compound 0.02 µM
  relative viability: 0.616
[4]; first compound 0.2 µM
  relative viability: 0.563
[4]; first compound 0.6325 µM
  relative viability: 0.59
[4]; first compound 2 µM
  relative viability: 0.616

## NCI-H23
[1]; first compound 0.009487 µM
  relative viability: 0.95
[1]; first compound 0.03 µM
  relative viability: 0.861
[1]; first compound 0.09487 µM
  relative viability: 0.643
[1]; first compound 0.3 µM
  relative viability: 1.07
[2]; first compound 0.02 µM
  relative viability: 0.834
[2]; first compound 0.2 µM
  relative viability: 0.896
[2]; first compound 0.6325 µM
  relative viability: 1.02
[2]; first compound 2 µM
  relative viability: 0.674
[3]; first compound 0.009487 µM
  relative viability: 0.67
[3]; first compound 0.03 µM
  relative viability: 0.553
[3]; first compound 0.09487 µM
  relative viability: 0.645
[3]; first compound 0.3 µM
  relative viability: 0.547
[4]; first compound 0.02 µM
  relative viability: 0.492
[4]; first compound 0.2 µM
  relative viability: 0.443
[4]; first compound 0.6325 µM
  relative viability: 0.544
[4]; first compound 2 µM
  relative viability: 0.559

## NCI-H322M
[1]; first compound 0.009487 µM
  relative viability: 1.26
[1]; first compound 0.09487 µM
  relative viability: 1.3
[1]; first compound 0.3 µM
  relative viability: 1.34
[2]; first compound 0.02 µM
  relative viability: 0.241
[2]; first compound 0.2 µM
  relative viability: 0.265
[2]; first compound 0.6325 µM
  relative viability: 0.247
[2]; first compound 2 µM
  relative viability: 0.249
[3]; first compound 0.009487 µM
  relative viability: 1.02
[3]; first compound 0.09487 µM
  relative viability: 0.874
[3]; first compound 0.3 µM
  relative viability: 0.895
[4]; first compound 0.02 µM
  relative viability: 0.458
[4]; first compound 0.2 µM
  relative viability: 0.48
[4]; first compound 0.6325 µM
  relative viability: 0.489
[4]; first compound 2 µM
  relative viability: 0.449

## NCI-H441
[1]; first compound 0.009487 µM
  relative viability: 0.453
[1]; first compound 0.03 µM
  relative viability: 0.393
[1]; first compound 0.09487 µM
  relative viability: 0.323
[1]; first compound 0.3 µM
  relative viability: 0.35
[2]; first compound 0.02 µM
  relative viability: 0.633
[2]; first compound 0.2 µM
  relative viability: 0.565
[2]; first compound 0.6325 µM
  relative viability: 0.627
[2]; first compound 2 µM
  relative viability: 0.697
[3]; first compound 0.009487 µM
  relative viability: 0.48
[3]; first compound 0.03 µM
  relative viability: 0.54
[3]; first compound 0.09487 µM
  relative viability: 0.32
[3]; first compound 0.3 µM
  relative viability: 0.383
[4]; first compound 0.02 µM
  relative viability: 0.19
[4]; first compound 0.2 µM
  relative viability: 0.235
[4]; first compound 0.6325 µM
  relative viability: 0.204
[4]; first compound 2 µM
  relative viability: 0.162

## NCI-H460
[1]; first compound 0.003 µM
  relative viability: 1.28
[1]; first compound 0.009487 µM
  relative viability: 1.06
[1]; first compound 0.03 µM
  relative viability: 1.14
[1]; first compound 0.09487 µM
  relative viability: 1.05
[1]; first compound 0.3 µM
  relative viability: 1.08
[2]; first compound 0.02 µM
  relative viability: 0.547
[2]; first compound 0.2 µM
  relative viability: 0.471
[2]; first compound 0.6325 µM
  relative viability: 0.534
[2]; first compound 2 µM
  relative viability: 0.408
[3]; first compound 0.003 µM
  relative viability: 0.84
[3]; first compound 0.009487 µM
  relative viability: 0.952
[3]; first compound 0.03 µM
  relative viability: 0.68
[3]; first compound 0.09487 µM
  relative viability: 0.757
[3]; first compound 0.3 µM
  relative viability: 0.826
[4]; first compound 0.02 µM
  relative viability: 0.187
[4]; first compound 0.2 µM
  relative viability: 0.156
[4]; first compound 0.6325 µM
  relative viability: 0.21
[4]; first compound 2 µM
  relative viability: 0.118
